Patent US6506801B1, “Methods of treating anosmia and repopulating olfactory nerves with retinoids” (Monell Chemical Senses Center, priority 2000, dated 2003)

Experiments:
[1] = system: olfactory nerve recovery after bilateral olfactory nerve transection; assay: Buried food task after bilateral olfactory nerve transection (BNX)
complicated anosmia = settings: Duncan et al. 1962; cited from earlier work

Row | Molecule | initial rate of recovery versus BNX-oil ([1]; BNX mice, FIG. 1, food-finding times to post-surgical day 14) | treatment effect on mean food finding times across the recovery period ([1]; BNX mice, post-surgical days 3-14, two-factor repeated measures ANOVA, F(1,15)=5.85, p<0.05, treatment X day interaction p<0.005) | mean post-surgical day on which animals reached criterion for initial recovery (first day of three consecutive days of <180 seconds food-finding time) ([1]; BNX mice, single oral 75 mg/kg atRA in sesame oil one day after surgery, n=9, BNX-oil 10.75±1.28, p<0.05) [post-surgical day] | post-surgical days between which animals reached criterion for initial recovery ([1]; BNX mice, single oral 75 mg/kg atRA in sesame oil, n=9) | recovery time needed to return to pre-surgical level of performance (≦30 seconds) ([1]; BNX mice, single oral 75 mg/kg atRA, no difference from BNX-oil (9.25 days), p=0.761) [days] | food-finding performance of sham-operated animals after surgery ([1]; sham mice, single oral 75 mg/kg atRA, n=4, FIG. 1) | usefulness in treating anosmia associated with skull injuries and fractures with sheering of olfactory nerves (complicated anosmia)
1 | CC1=C(/C=C/C(C)=C/C=C/C(C)=C/C(=O)O)C(C)(C)CCC1 [RA, all-trans retinoic acid] | faster | significant treatment effect | 7.56±0.67 | 4-11 post-surgical days | 9.8 | performed at pre-surgical levels | –
2 | Vitamin A | – | – | – | – | – | – | not to be useful
